Molecules are shown by their SMILES.

A short description of this data set: in vitro. The note with it: human, hela cells, % viability.

By viability is commonly meant a read-out of living cells in per cent, often relative to untreated cells. For `O=C(CCSCc1nc2sc3c(c2c(=O)[nH]1)CCC3)N1CCC1` [CBK304536], the viability at 28.5 h, 10 µM stood at 75.7%.
Consider `COC(=O)CC(NC(=O)c1cccc(NC(C)=O)c1)c1cccs1` (centres unmarked) [CBK304537], for which the viability at 28.5 h, 10 µM was found to be 78%.
`CC(=O)Nc1ccc(CNC(=O)c2ccc[nH]2)cc1` [CBK304538]: the viability at 28.5 h, 10 µM was found to be 87.1%.
Turning to `CCCCN(CC(N)=O)C(=O)c1sc(COc2ccc(Cl)cc2)nc1C` [CBK304539], the viability at 28.5 h, 10 µM is 101%.
Turning to `Cc1nc(Cc2nc(-c3ccc4c(c3)CCCN4S(C)(=O)=O)cs2)cs1` [CBK304542], the viability at 28.5 h, 10 µM came to 97.3%.
In the case of `CCCCN(C)S(=O)(=O)NCCc1cn2ccccc2n1` [CBK304543] it was 101%; in that of `CC(N(C)S(=O)(=O)c1ccc(-n2ncc(Cl)c(Cl)c2=O)cc1)C(C)(C)C` (centres unmarked) [CBK304544], 73.9%; in that of `NC(=O)NC(CC(=O)N1CCN(c2nccs2)CC1)c1cccc(Br)c1` (centres unmarked) [CBK304548], 90.6%.
`CC(=O)Nc1ccc(OCC(O)Cn2c(CO)nc3ccccc32)cc1` (centres unmarked) [CBK304549]: the viability at 28.5 h, 10 µM was 81.3%.
As for `CCOC(=O)C1CSCCN1C(=O)c1cnn(-c2ccc(Br)cc2)c1C` (centres unmarked) [CBK304550], the viability at 28.5 h, 10 µM turned out to be 102%.
`CCOC(=O)Cc1csc(SC(C)C(=O)N2CCNC2=O)n1` (centres unmarked) [CBK304551]: the viability at 28.5 h, 10 µM was 106%.
`O=C(NCCNc1cnccn1)c1cc(F)cc(Br)c1` [CBK304554]: the viability at 28.5 h, 10 µM is 99.6%.
Regarding `CCOC(=O)C1CCN(c2cccc(F)c2C#N)CC1` [CBK304558], the viability at 28.5 h, 10 µM is 101%.
For the compound `O=C(NCC(c1ccco1)N1CCCC1)C1CCCCC1` (centres unmarked) [CBK304560], the viability at 28.5 h, 10 µM was found to be 88.7%.
In the case of `Cc1sc2ncn(CC(=O)NC3CCOc4ccccc43)c(=O)c2c1C` (centres unmarked) [CBK304562] it was 86.3%.
On to `CC(C)(C)CC(NC(=O)C1CCCN(S(C)(=O)=O)C1)c1ccccc1` (centres unmarked) [CBK304563], for which the viability at 28.5 h, 10 µM stood at 90.6%.
Take `Cc1ccccc1CC(=O)NCC(c1ccccc1Cl)N1CCOCC1` (centres unmarked) [CBK304564]: the viability at 28.5 h, 10 µM stood at 85.3%.
`O=C(Cn1ccc(=O)[nH]c1=O)NCc1cccnc1OCC(F)(F)F` [CBK304565]: the viability at 28.5 h, 10 µM is 90.5%.
Turning to `N#CC1(NC(=O)c2ccn(-c3cccc(F)c3)n2)CCSC1` (centres unmarked) [CBK304566], the viability at 28.5 h, 10 µM came to 106%.
Take `COc1ccc(CCNC(=O)CN2CCCC2Cn2cncn2)cc1` (centres unmarked) [CBK304567]: the viability at 28.5 h, 10 µM is 115%.
As for `COc1cc(C(=O)Nc2ncccc2OCCCC#N)ccc1C` [CBK304568], the viability at 28.5 h, 10 µM was determined as 85.7%.
Regarding `COc1cc(C)nc(N2CCN(C(=O)CCc3ccsc3)CC2)n1` [CBK304572], the viability at 28.5 h, 10 µM stood at 87.6%.
For the compound `Cc1ccc(N2CCCN(C(=O)CCc3ccsc3)CC2)nn1` [CBK304573], the viability at 28.5 h, 10 µM came out at 91.1%.
As to `O=C(O)c1ccc(Cl)c(S(=O)(=O)NCc2ccco2)c1` [CBK304575], the viability at 28.5 h, 10 µM is 105%.
For the compound `Nc1cc(=O)[nH]c(SCC(=O)N2CCCc3ccccc32)n1` [CBK304576], the viability at 28.5 h, 10 µM amounted to 94.1%.
`O=C(c1cc(S(=O)(=O)N2CCOCC2)ccc1Cl)N1CCCCC1CO` (centres unmarked) [CBK304579]: the viability at 28.5 h, 10 µM was 88.6%.
With `CN(C(=O)c1cc(S(=O)(=O)N2CCOCC2)ccc1F)C1CCCCC1` [CBK304580] the figure was 114%; with `O=C(Nc1nc2ccccc2[nH]1)c1ccc(N2CCCS2(=O)=O)cc1` [CBK304582], 98.6%; with `CC(=O)Nc1cccc(C(=O)NCC(c2cccs2)N(C)C)c1` (centres unmarked) [CBK304583], 86.7%.
In the case of `O=C(Nc1nc2ccccc2[nH]1)c1cccc(N2CCCS2(=O)=O)c1` [CBK304584] it was 100%.
As to `COc1ccccc1CN(C)C(=O)CCc1ccc(S(N)(=O)=O)cc1` [CBK304585], the viability at 28.5 h, 10 µM was determined as 86.8%.
Regarding `COc1ccccc1C(CNC(=O)Nc1cc(C)on1)N1CCCC1` (centres unmarked) [CBK304586], the viability at 28.5 h, 10 µM was found to be 94.5%.
